Where a name gives a salt, the structure may show the parent alone.
What was measured:
TAC mice = assay: Acute effect on mouse models of heart failure (TAC, single injection 5 weeks later); type: in vivo; settings: TAC mice 5 weeks after TAC, 50 mg/kg, echocardiography before and 10 minutes after injection
Procedure: Transverse aortic constriction (TAC) was performed as described previously [Date, et al. (2002) The antioxidant N-2-mercaptopropionyl glycine attenuates left ventricular hypertrophy in in vivo murine pressure-overload model. J Am Coll Cardiol 39: 907-912.]. Briefly, 8- to 10-week-old mice were anesthetized with anesthetic (0.3 mg/kg of medetomidine, 4.0 mg/kg of midazolam, and 5.0 mg/kg of butorphanol) administered intraperitoneally, and the proximal portion of the sternum was cut open to visualize the aorta. A 7-0 silk suture was placed around the aortic arch distal to the brachiocephalic artery. The suture was tightened firmly around a blunt 26-gauge needle placed adjacent to the aorta. The needle was then removed, and the chest and overlying skin were closed. Sham-operated mice underwent an identical surgical procedure without ligation of the aortic arch. At the end of the operation, 0.3 mg/kg of atipamezole was administered subcutaneously to reverse medetomidine. FIG. 1 is a schematic diagram of TAC.
To analyze the cardiac function, we used Vevo® 2100 (VISUALSONICS) at the indicated time points after TAC operation. Mice were kept under inhalation anesthesia with 2.5% isoflurane. LV function was measured in M mode of the parasternal short-axis view.
Mice were subjected to TAC at 8 weeks of age. Five weeks later (at 13 weeks of age), the mice were injected with KUS121 (50 mg/kg), and left ventricular ejection fraction (LVEF), left ventricular end-diastolic diameter (LVDd), and heart rate (HR) were assessed by echocardiography before and 10 minutes after the injection.
Mice were subjected to TAC at 8 weeks of age. Five weeks later (at 13 weeks of age), the mice were injected with KUS121 (50 mg/kg), and left ventricular pressure was measured by catheterization before and 10 minutes after the injection. The left ventricular pressure was 46.6 mmHg before KUS121 administration, and increased to 128.9 mmHg 10 minutes after the administration. In addition, Max/min dp/dt was changed from 1295.5/−621.4 mmHg/s to 3972.8/−1311.1 mmHg/s. […] Left ventricular ejection fraction was then measured over time and was 37% before KUS121 administration, increased to 67% 5 minutes after the administration, and returned to the baseline about 2 hours after the administration (FIG. 16).
Mice were subjected to TAC at 8 weeks of age. Five weeks later (at 13 weeks of age), the mice were injected with KUS187 (50 mg/kg), and left ventricular ejection fraction was assessed by echocardiography before and 10 minutes after the injection.

[1] = system: beagle dog models of heart failure; assay: Beagle dog models of rapid ventricular pacing-induced heart failure; type: in vivo; settings: infusion per FIG. 17 protocol
Procedure: After induction of general anesthesia with thiopental sodium (20 mg/kg, i.v.: 0.5 g of Labonal injection, Nipro ES Pharma Corporation) in 10- to 12-month-old male beagle dogs (9.80-11.50 kg), a tracheal cannula was inserted into the airway, and artificial respiration was performed with an Acoma veterinary ventilator (PRO-45Va, Acoma Medical Corporation). Anesthesia was maintained by inhalation of a gas mixture (Air:O2=3:0.2) and 1.0 to 2.5% isoflurane (isoflurane inhalation solution “Pfizer”, Mylan Seiyaku Co., Ltd.) using an Acoma animal anesthesia machine (NS-5000A, Acoma Medical Industry Co., Ltd.) to maintain a constant depth of anesthesia. An incision was made in the right side of the neck of the animal, an animal internal cardiac pacemaker (SIP-501, Star Medical Corporation) was implanted subcutaneously, a retractable screw-in reed (Tendril STS J, St. Jude Medical, Inc.) was inserted through the right jugular vein under X-ray fluoroscopy (BV Pulsera, Koninklijke Philips N.V.), and the tip was implanted in the right ventricular wall. Pacing was started at 244-251 beats/min on postoperative day 1. Dogs with ejection fraction (EF) decreasing to 30-50% at 4 weeks after pacemaker activation were considered to have heart failure and subjected to analysis.
Echocardiography was performed using a general-purpose ultrasound imaging system (Vivid S6, GE Medical Systems). The left ventricular end-diastolic diameter (LVIDd), left ventricular end-systolic diameter (LVIDs), ejection fraction (EF), and left ventricular internal diameter shortening (% FS) were measured in M-mode by placing a sector probe (10 MHz) on the chest.
Dogs were anesthetized intravenously with 14.5 to 22.3 mg/kg of secobarbital sodium (Injectable Ionar sodium (0.2), Nichi-Iko Co., Ltd.), followed by subcutaneous administration of 0.2 mg/kg of meloxicam (Metacam 0.5% injection, Boehringer Ingelheim Animal Health Japan Co.). A tracheal tube was inserted into the airway and connected to an Acoma animal ventilator (PRO-45Va, Acoma Medical Industry Co., Ltd.). The ventilator was set at a respiratory rate of 14-18 strokes/min and a tidal volume of 10-20 mL/kg/stroke, and respiration was controlled by an Acoma animal anesthesia machine (NS-5000A, Acoma Medical Industry Co., Ltd.) using a gas mixture (FiO2=0.3-1.0). The exhaled CO2 partial pressure was monitored using an exhaled carbon dioxide monitor (OLG-2800, Nihon Kohden Corporation). The animals were fixed in the dorsal position and the thighs and neck were shom. Anesthesia was maintained by continuous intravenous infusion of sodium secobarbital (5 mg/kg/hr) through the radial cutaneous vein using a Telfusion syringe pump (STC-523, Terumo Corporation). A Swan-Ganz catheter was inserted through the left femoral vein. A catheter for coronary angiography was inserted through the left femoral artery. A 5F sheath for arterial blood sampling was placed in the right femoral artery. A catheter for PV-loop analysis was inserted from the left internal carotid artery. An 8F occlusion balloon was placed from the right femoral vein for occlusion testing. In addition, KUS121 was administered from the left common jugular vein.
Beagle dog models of heart failure were prepared by rapid ventricular pacing. Cardiac function was assessed by echocardiography before KUS121 administration and after continuous infusion at 40 mg/h. KUS121 increased LVEF, even if it was based on either of the Teichholz method and the modified-Simpson's method, and increased % FS (FIG. 18). Changes in heart rate, systolic blood pressure, diastolic blood pressure, left ventricular ejection fraction, mean pulmonary artery pressure, pulmonary capillary wedge pressure, left ventricular end-diastolic pressure, and adjusted dp/dt are shown in FIGS. 19 to 21. […]

SMILES	left ventricular ejection fraction (LVEF) (TAC mice)	heart rate [1]	left ventricular systolic function [1]
CCCCOc1c(C=O)cc(C)cc1-c1ccc(/N=N/c2cc(S(=O)(=O)O)c3ccccc3c2N)cn1 [KUS187, 4-amino-3-[6-(3-formyl-2-butoxy-5-methylphenyl)pyridine-3-ylazo]naphthalene-1-sulfonic acid sodium salt]	increased	–	–
CC(CCc1ccc(O)cc1)NCCc1ccc(O)c(O)c1 (stereo not drawn) [dobutamine, reference compound]	–	increased heart rate	improved
